Experimental findings from patent US6887897B2, “Calcium glutarate supplement and phosphorus binder” (Mission Pharmacal Company, priority 2001, dated 2005) are described below.

Data set [1] can be described thus: in-vitro test of ability of calcium glutarate to bind with phosphates (free calcium in filtrate by atomic absorption spectrometry). The note with it: filtered through 0.45-μm nylon filter. Here is the method:
(§1) The following in-vitro tests were conducted to test the solubility and ability of calcium glutarate to bind with phosphates. The tests included analysis for monobasic, Ca(Na2PO4)2, dibasic, CaNaPO4, and tribasic, Ca(PO4)2 binding. The three examples are as follows.
An aqueous solution of calcium glutarate was mixed with a twice over molar solution of sodium phosphate. A suspension formed which was filtered by a vacuum through a 0.45-μm nylon filter. The resulting filtrate was assayed for free calcium by atomic absorption spectrometry. The percent of calcium recovered in solution was 0.1%.
An aqueous solution of calcium glutarate was mixed with an equi-molar solution of sodium phosphate. A suspension formed which was filtered by vacuum through a 0.45-μm nylon filter. The resulting filtrate was assayed for free calcium by atomic absorption spectrometry. The percent of calcium recovered in solution was 0.1%.
An aqueous solution of calcium glutarate was mixed with a two-thirds molar solution of sodium phosphate. A suspension formed which was filtered by vacuum through a 0.45-μm nylon filter. The resulting filtrate was assayed for free calcium by atomic absorption spectrometry. The percent of calcium, recovered in solution was 4.5%.

A short description of data set [2]: aqueous solubility of calcium salts. The class given is physicochemical. Here is the method:
as §1

As for `O=C([O-])CCCC(=O)[O-].[Ca+2]` [calcium glutarate], the “percent of calcium recovered in solution” value in data set [1] (mixed with a twice over molar solution of sodium phosphate) stood at 0.1%; in data set [1] (mixed with a two-thirds molar solution of sodium phosphate) it was 4.5%; in data set [1] (mixed with an equi-molar solution of sodium phosphate), 0.1%. In addition, in data set [2], the solubility result is “about 5.2 gm per 100 cc”.
